Test system: Erwinia amylovora (Ea) strain AFRS-581
Experiment: Fireblight blossom infection on potted 'Rome' apple trees inoculated with Erwinia amylovora, greenhouse
Assay type: in vivo
Conditions: 'Rome' apple blossoms sprayed with 10^8 CFU Ea, treated about 1 hour later, scored after 7 days; PM 3% weight by volume; copper hydroxide 0.5 g/l; Blight Ban 1 g/l; streptomycin 0.5 g/l
Description: The enhanced effect of reducing fireblight in apple trees with the pesticide delivery system of the present invention containing bactericides is examined and compared to conventional pesticides.
Experiments are conducted on potted trees of ‘Rome’ apple in a naturally illuminated greenhouse. When about 80% of the blooms are open, open blossoms are sprayed to drip with 10^8 CFU of Erwinia amylovora (Ea) strain AFRS-581. After drying for about 1 hour, each the following treatments are applied to six of the infected trees. Slurries containing particulate materials (PM) (3% weight by volume), water and copper hydroxide at 0.5 g/l (Copper Count N from Mineral Research Development Co., Charlotte, N.C., a bactericide), Blight Ban at 1 g/l (from Plant Health Technologies, Boise, Id., a microbial bactericide), or streptomycin at 0.5 g/l (from Novartis Crop Protection Inc., Greensboro, N.C., an antibiotic); and slurries containing PM (3% weight by volume) and water; and mixtures of water and copper hydroxide at 0.5 g/l, Blight Ban at 1 g/l, or streptomycin at 0.5 g/l are applied to the apple trees. […]
After 7 days, blossom necrosis symptoms are present and recorded. Disease data are expressed as percentage of blossom infect rate.

Row | SMILES | % Blossom Infection
1 | [Cu+2].[OH-].[OH-] [copper hydroxide] | 87.1%
2 | [H]/N=C(/N)N[C@H]1[C@H](O)[C@@H](O)[C@H](O[C@@H]2O[C@@H](C)[C@](O)(C=O)[C@H]2O[C@@H]2O[C@@H](CO)[C@H](O)[C@@H](O)[C@@H]2NC)[C@@H](N/C(N)=N\[H])[C@@H]1O [streptomycin] | 83.3%
